In ChEMBL document CHEMBL5465560, “Selectivity Literature for EUbOPEN Chemogenomic Library” (2024):

Key:
[1] = target: Ribosomal protein S6 kinase alpha-3 (Homo sapiens, UniProt P51812); details: at 10 µM
[2] = target: Phosphatidylinositol 4,5-bisphosphate 3-kinase catalytic subunit gamma isoform (Homo sapiens) (UniProt P48736); assay: Selectivity interaction (Kinase panel (literature)) EUB0001199aCl PIK3CG; details: at 1 µM
[3] = target: T1, Serine/threonine-protein kinase 3 (Homo sapiens) (UniProt Q13188); assay: Selectivity interaction (Kinase panel (literature)) EUB0001199aCl STK3; details: at 1 µM
T1 sequence (whole entry): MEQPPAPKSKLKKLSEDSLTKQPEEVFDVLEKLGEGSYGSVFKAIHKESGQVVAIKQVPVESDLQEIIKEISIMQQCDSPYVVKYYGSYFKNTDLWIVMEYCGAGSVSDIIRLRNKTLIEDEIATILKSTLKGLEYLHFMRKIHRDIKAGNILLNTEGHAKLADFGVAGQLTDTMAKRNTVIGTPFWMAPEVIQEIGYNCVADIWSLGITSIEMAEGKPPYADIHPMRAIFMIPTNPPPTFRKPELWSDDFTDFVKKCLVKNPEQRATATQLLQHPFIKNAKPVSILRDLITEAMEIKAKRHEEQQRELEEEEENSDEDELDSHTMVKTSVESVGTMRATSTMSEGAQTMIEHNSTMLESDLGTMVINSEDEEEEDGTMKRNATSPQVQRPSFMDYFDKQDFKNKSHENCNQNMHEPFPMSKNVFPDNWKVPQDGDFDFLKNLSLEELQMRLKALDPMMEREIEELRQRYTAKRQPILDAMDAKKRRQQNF

[4] = target: Serine/threonine-protein kinase 33 (Homo sapiens) (UniProt Q9BYT3); assay: Selectivity interaction (KinomeScan (DiscoverX)) EUB0000618a STK33; details: at 10 µM
[5] = system: Phosphatidylinositol 4,5-bisphosphate 3-kinase catalytic subunit alpha isoform (Homo sapiens), P42336 [I800L]; details: at 10 µM
[6] = target: Mitogen-activated protein kinase kinase kinase kinase 4 (Homo sapiens, UniProt O95819); assay: Selectivity interaction (Upstate Kinase Profiler service (Millipore)) EUB0000056c MAP4K4; details: at 1 µM
[7] = target: Insulin-like growth factor 1 receptor (Homo sapiens, UniProt P08069); details: at 10 µM
[8] = target: Ribosomal protein S6 kinase alpha-5 (Homo sapiens) (UniProt O75582); assay: Selectivity interaction (Kinase panel (Invitrogen)) EUB0000639a RPS6KA5; details: at 200 nM
[9] = target: T2, Eukaryotic elongation factor 2 kinase (Homo sapiens) (UniProt O00418); assay: Selectivity interaction (ProQinase) EUB0000171b EEF2K
T2 sequence (whole entry): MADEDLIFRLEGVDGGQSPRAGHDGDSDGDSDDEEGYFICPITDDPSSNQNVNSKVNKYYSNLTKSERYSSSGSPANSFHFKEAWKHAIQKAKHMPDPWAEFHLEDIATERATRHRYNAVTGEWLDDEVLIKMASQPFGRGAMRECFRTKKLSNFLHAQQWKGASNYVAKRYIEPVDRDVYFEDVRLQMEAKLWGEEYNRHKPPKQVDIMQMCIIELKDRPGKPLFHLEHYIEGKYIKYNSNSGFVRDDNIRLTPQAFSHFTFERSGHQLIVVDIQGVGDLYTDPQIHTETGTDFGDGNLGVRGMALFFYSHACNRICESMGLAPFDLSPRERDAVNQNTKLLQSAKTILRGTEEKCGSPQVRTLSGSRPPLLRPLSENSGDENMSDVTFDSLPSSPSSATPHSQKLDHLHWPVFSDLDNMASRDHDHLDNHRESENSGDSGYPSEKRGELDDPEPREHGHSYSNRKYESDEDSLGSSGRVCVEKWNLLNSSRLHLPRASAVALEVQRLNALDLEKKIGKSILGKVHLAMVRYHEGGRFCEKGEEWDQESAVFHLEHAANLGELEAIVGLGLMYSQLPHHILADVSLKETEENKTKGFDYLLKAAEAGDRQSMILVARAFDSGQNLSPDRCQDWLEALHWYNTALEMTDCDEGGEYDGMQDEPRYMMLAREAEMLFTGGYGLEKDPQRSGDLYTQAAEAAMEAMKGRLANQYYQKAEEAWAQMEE

[10] = target: Non-receptor tyrosine-protein kinase TYK2 (Homo sapiens, UniProt P29597); assay: Selectivity interaction (KinomeScan (DiscoverX)) EUB0001049a TYK2; details: at 1 µM
[11] = target: cAMP-dependent protein kinase catalytic subunit beta (Homo sapiens) (UniProt P22694); assay: Selectivity interaction (KinomeScan (DiscoverX)) EUB0000666a PRKACB; details: at 10 µM
[12] = target: Myosin-IIIa (Homo sapiens) (UniProt Q8NEV4); assay: Selectivity interaction (KinomeScan (DiscoverX)) EUB0000666a MYO3A; details: at 10 µM
Aurora kinase B = Aurora kinase B (Homo sapiens, UniProt Q96GD4); assay: Selectivity interaction (Enzymatic assay) EUB0001550a AURKB
[13] = target: Dual specificity protein kinase CLK4 (Homo sapiens, UniProt Q9HAZ1); assay: Selectivity interaction (Enzymatic assay) EUB0001550a CLK4
[14] = target: Serine/threonine-protein kinase PLK3 (Homo sapiens, UniProt Q9H4B4); assay: Selectivity interaction (KinomeScan (DiscoverX)) EUB0000695a PLK3; details: at 100 nM

Chain of Mitogen-activated protein kinase kinase kinase kinase 4 (O95819 2-1239 limits assumed): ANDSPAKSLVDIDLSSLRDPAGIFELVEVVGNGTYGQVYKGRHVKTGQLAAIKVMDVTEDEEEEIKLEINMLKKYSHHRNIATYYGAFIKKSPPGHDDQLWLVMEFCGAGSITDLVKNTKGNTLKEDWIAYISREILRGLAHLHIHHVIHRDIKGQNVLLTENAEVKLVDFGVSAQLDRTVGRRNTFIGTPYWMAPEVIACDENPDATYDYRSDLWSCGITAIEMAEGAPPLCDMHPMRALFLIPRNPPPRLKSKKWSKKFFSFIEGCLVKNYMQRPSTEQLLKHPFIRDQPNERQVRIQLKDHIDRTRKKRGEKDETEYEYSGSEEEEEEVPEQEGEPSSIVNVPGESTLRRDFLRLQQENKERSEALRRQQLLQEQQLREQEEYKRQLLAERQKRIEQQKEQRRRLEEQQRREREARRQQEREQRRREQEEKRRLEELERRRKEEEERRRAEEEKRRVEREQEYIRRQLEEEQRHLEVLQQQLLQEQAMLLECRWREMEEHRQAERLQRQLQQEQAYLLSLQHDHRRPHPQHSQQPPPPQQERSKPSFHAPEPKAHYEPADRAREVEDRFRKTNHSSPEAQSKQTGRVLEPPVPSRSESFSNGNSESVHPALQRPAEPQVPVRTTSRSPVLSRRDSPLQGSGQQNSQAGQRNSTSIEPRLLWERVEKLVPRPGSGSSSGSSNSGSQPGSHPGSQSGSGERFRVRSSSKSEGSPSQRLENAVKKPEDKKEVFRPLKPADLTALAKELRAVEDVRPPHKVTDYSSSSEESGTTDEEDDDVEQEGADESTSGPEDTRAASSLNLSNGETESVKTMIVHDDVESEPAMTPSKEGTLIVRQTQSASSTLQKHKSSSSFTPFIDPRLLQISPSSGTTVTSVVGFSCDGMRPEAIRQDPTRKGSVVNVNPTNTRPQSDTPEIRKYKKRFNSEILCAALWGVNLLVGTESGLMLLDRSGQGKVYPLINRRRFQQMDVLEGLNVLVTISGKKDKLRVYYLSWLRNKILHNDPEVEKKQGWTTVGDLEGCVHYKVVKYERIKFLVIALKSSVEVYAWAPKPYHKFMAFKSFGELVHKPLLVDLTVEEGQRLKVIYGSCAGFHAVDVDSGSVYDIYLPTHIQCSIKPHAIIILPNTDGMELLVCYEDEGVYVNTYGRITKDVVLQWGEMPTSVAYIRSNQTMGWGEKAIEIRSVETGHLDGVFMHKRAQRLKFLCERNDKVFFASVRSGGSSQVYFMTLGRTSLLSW
Chain of Phosphatidylinositol 4,5-bisphosphate 3-kinase catalytic subunit gamma isoform (Homo sapiens) (P48736 whole entry, looked up, canonical isoform): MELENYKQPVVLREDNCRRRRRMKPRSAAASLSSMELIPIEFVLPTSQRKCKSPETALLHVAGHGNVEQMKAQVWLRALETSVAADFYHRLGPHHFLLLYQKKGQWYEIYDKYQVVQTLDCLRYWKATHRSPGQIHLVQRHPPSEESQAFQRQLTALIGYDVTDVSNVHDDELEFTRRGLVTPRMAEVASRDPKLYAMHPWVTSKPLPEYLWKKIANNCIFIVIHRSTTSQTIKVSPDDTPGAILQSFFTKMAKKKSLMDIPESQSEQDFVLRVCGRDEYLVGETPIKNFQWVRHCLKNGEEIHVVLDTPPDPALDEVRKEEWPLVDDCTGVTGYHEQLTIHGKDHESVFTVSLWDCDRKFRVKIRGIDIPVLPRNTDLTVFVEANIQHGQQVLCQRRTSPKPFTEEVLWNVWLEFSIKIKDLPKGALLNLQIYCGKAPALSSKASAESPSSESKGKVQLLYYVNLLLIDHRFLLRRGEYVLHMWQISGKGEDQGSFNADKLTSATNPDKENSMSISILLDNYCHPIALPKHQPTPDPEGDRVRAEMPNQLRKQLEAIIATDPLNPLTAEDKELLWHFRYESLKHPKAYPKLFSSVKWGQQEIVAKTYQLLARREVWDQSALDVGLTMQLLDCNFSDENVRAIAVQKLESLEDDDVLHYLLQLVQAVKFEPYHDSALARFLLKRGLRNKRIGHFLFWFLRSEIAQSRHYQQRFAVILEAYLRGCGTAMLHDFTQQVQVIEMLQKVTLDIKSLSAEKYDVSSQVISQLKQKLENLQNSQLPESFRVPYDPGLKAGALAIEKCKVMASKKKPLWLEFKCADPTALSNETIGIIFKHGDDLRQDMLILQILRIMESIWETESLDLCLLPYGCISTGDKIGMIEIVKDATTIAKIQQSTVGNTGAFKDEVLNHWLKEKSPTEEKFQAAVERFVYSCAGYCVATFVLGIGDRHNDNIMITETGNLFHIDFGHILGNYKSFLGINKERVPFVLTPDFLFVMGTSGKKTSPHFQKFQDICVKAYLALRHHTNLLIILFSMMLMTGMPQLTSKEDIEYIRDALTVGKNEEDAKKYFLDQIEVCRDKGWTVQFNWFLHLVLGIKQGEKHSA
Chain of Ribosomal protein S6 kinase alpha-3 (P51812 whole entry, canonical isoform): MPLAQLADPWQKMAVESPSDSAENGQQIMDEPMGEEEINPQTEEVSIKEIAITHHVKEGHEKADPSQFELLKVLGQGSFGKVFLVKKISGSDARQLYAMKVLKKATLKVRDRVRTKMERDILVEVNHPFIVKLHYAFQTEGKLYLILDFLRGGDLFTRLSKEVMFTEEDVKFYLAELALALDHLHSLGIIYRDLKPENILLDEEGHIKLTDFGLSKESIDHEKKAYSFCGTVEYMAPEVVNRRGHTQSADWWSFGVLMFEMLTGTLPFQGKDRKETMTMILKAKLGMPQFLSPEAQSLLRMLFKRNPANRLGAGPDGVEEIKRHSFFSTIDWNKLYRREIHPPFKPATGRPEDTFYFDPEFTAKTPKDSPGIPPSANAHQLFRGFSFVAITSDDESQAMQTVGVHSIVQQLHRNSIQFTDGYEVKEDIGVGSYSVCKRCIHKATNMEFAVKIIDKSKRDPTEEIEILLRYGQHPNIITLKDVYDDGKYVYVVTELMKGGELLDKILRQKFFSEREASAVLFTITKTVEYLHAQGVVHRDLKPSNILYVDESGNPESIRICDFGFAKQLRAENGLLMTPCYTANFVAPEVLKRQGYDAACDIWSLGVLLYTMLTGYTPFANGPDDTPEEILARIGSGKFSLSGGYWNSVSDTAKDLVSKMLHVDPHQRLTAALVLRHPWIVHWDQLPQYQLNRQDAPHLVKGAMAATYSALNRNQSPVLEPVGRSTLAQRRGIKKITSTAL
Chain of Myosin-IIIa (Homo sapiens) (Q8NEV4 whole entry): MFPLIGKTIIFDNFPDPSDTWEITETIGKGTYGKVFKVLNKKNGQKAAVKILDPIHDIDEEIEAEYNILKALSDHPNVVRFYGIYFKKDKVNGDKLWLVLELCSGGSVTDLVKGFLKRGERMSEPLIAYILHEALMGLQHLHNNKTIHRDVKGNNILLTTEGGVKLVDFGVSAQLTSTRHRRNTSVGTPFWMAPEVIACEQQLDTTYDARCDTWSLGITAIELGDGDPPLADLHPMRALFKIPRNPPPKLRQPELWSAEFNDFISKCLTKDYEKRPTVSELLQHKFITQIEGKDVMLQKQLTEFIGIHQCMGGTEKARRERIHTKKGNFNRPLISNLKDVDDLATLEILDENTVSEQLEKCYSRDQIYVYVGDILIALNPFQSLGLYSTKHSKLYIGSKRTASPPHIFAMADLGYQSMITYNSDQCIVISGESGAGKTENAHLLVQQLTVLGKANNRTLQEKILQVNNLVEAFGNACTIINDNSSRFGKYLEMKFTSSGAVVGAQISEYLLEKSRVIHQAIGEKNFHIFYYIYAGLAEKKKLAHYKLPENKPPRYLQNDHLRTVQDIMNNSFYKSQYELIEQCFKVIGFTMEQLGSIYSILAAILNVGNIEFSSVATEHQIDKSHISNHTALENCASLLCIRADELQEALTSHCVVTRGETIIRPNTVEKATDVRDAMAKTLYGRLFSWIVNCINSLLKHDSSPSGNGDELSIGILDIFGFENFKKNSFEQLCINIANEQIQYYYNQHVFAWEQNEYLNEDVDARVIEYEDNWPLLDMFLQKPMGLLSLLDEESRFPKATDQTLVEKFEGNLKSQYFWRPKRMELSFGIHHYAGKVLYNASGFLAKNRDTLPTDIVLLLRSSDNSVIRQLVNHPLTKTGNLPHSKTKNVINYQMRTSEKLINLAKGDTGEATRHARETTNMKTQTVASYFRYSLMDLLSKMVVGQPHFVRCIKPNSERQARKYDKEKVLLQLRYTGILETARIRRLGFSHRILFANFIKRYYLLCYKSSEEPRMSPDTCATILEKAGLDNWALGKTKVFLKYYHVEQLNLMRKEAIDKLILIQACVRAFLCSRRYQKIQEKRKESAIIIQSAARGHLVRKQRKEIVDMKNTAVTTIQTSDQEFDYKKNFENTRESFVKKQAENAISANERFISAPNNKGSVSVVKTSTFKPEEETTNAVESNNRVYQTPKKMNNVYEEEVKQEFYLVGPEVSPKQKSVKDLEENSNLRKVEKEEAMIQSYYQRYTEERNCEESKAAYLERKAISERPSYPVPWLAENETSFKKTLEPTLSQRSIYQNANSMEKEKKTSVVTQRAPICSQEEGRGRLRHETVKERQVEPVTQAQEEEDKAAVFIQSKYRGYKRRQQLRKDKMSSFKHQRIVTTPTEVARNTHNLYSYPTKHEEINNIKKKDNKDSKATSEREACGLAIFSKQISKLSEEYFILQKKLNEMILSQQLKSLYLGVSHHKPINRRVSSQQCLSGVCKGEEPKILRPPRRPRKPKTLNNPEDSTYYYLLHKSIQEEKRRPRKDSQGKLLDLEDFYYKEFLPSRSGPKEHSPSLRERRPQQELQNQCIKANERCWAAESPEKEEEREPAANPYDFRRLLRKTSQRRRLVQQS
Chain of Aurora kinase B (Q96GD4 whole entry): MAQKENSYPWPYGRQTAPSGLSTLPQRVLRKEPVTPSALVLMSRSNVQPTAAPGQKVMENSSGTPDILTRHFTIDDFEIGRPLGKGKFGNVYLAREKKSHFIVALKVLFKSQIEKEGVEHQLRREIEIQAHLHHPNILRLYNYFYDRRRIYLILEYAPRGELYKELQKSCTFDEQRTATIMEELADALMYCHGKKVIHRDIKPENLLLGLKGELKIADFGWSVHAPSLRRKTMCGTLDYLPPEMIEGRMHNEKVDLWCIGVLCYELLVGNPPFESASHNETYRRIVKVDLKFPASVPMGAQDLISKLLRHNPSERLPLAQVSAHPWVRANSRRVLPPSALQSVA

Q: For CCN(CC)CCCCNc1ncc2cc(-c3cc(OC)cc(OC)c3)c(NC(=O)NC(C)(C)C)nc2n1, which % of control [1] is on record?
A: The % of control was 100%.

Q: CN1Cc2nccc(-c3cn(C)nc3-c3ccc(F)cc3)c2C1=O was tested. Which % of inhibition [2] did it give?
A: Its % of inhibition is -10%.

Q: What about the % of inhibition [3] of the same compound?
A: The % of inhibition was -2%.

Q: For O[C@H]1CC[C@H](Nc2ncc3nc(Nc4c(F)cc(F)cc4F)n([C@H]4CCOC4)c3n2)CC1, which % of control [4] is on record?
A: The % of control was 100%.

Q: How did the % of control [5] turn out when COCC(=O)NC/C=C/c1ccc2ncnc(Nc3ccc(Oc4ccc(C)nc4)c(C)c3)c2c1 [CP-724714] was run?
A: The % of control was 100%.

Q: With Cc1ccc(-c2ccc3c(ccc4sc5c(c43)NC[C@@H](C)NC5=O)n2)cn1 as the compound, how does the % of inhibition [6] read?
A: Its % of inhibition is 43%.

Q: For Cc1cc([C@@H](C)Nc2ccccc2C(=O)O)c2nc(N3CCOCC3)cc(=O)n2c1 [AZD-6482], which % of control [7] is on record?
A: The % of control was 100%.

Q: Which % of inhibition [8] does the source give for CC[C@@H]1[C@H](F)C(=O)N[C@@H]1COc1nccc2cc(C(N)=O)c(OC)cc12 [ZIMLOVISERTIB] here?
A: Its % of inhibition is 0.449%.

Q: For C=CC(=O)Nc1cccc(C(=O)Nc2ccc(Nc3cc(-c4[nH]c(SC)nc4C)ccn3)cc2)c1, which % of control ([9]; at 1 µM) is on record?
A: The % of control was 91%.

Q: What about the % of control ([9]; at 5 µM) of the same compound?
A: The % of control was 92%.

Q: With COc1cc(Nc2nc(C)cc(-c3cnn4nc(OC)ccc34)n2)cc(C(F)(F)F)c1 as the compound, how does the % of control [10] read?
A: Its % of control is 90%.

Q: O=C(NOC[C@H](O)CO)c1ccc(F)c(F)c1Nc1ccc(I)cc1F was tested. Which % of control [11] did it give?
A: The % of control was 98%.

Q: What about the % of control [12] of the same compound?
A: Its % of control is 47%.

Q: CN(C)CC#Cc1ccc2[nH]c3c(c2c1)-c1nc(N)ncc1CCC3 was tested. Which IC50 (Aurora kinase B) did it give?
A: Its IC50 is 1400 nM.

Q: And the IC50 [13]?
A: The IC50 was 440 nM.

Q: For Cc1cc(F)c(C(=O)Nc2cccc(-c3nncn3C(C)C)n2)cc1-n1cnc(C2CC2)c1, which % of control [14] is on record?
A: The % of control was 100%.
